Here are results for 1 compound from paper PMC10869544 (Frontiers in Immunology, 2024).

The structures appear in SMILES notation.

This assay addresses NEK7 (Homo sapiens, UniProt Q8TDX7). Kind of assay: biochemical in vitro kinase assay (Reaction Biology), 10-dose IC50, […] ATP.

Chain of NEK7 (Q8TDX7 whole entry): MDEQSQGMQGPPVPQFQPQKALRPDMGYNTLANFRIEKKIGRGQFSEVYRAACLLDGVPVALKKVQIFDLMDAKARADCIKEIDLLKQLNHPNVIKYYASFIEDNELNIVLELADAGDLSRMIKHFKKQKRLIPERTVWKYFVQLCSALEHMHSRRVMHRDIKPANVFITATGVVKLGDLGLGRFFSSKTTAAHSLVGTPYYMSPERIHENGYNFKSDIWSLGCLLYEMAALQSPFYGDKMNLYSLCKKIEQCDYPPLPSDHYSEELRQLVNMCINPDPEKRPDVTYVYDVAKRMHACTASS

The compound `CCN1CCN(c2ccc(Nc3ncc4scc(-c5cccc(C(=O)NCCN(C)C)c5)c4n3)cc2)CC1` [SLC3037, N-(2-(Dimethylamino)ethyl)-3-(2-((4-(4-ethylpiperazin-1-yl)phenyl)amino)thieno[3,2-d]pyrimidin-7-yl)benzamide] yielded an IC50 of 2850 nM.

One may read the IC50 as the concentration at which inhibition is half-maximal. High values mean a need for much substance, low ones inhibition by little substance.
